The numbers were not newly measured in patent US8753875B2, “Compositions and means for diagnosing microbial infections” (priority 2007, dated 2014), which cites them from elsewhere.

In data set [1] the test system is E. coli. The note with it: 1142 E. coli outpatient urinary isolates, USA and Canada; cited from earlier work.
The test system of data set [2] is E. coli. The conditions noted are these: cited from earlier work.

Where two headings read alike, the source gives them in different places.

For the compound `C[C@H]1COc2c(N3CCN(C)CC3)c(F)cc3c(=O)c(C(=O)O)cn1c23` [levofloxacin, (−)-(S)-9-fluoro-2,3-dihydro-3-methyl-10-(4-methyl-1-piperazinyl)-7-oxo-7H-pyrido [1,2,3-de]-1,4-benzoxazine-6-carboxylic acid], in the data set with E. coli [1], the “Overall resistance in E. coli” value is reported as 5.1%.

For `CNC(C)C1CCC(N)C(OC2C(N)CC(N)C(OC3OCC(C)(O)C(NC)C3O)C2O)O1` (centres unmarked) [GEN, 2-[4,6-diamino-3-[3-amino-6-(1-methylaminoethyl)tetrahydropyran-2-yl]oxy-2-hydroxy-cyclohexoxy]-5-methyl-4-methylamino-tetrahydropyran-3,5-diol], the “Antimicrobial resistance of E. coli (resistance in percent)” value with E. coli [2] (Austria, n 126) is recorded as 0.8%; with E. coli [2] (Belgium, n 137), 0.7%; with E. coli [2] (Canada, n 166), 0.6%; in the data set with E. coli [2] (Denmark, n 85), 0%; with E. coli [2] (Finland, n 182), 0.5%; in the data set on E. coli [2] (France, n 199), 0%. Further, the “Antimicrobial resistance of E. coli (resistance in percent)” value is 0.7% in the data set with E. coli [2] (Germany, n 138); 0.8% with E. coli [2] (Greece, n 132); 0.6% in the data set with E. coli [2] (Ireland, n 154); 0% in the data set on E. coli [2] (Luxembourg, n 24); 0% with E. coli [2] (Norway, n 168); 3.5% with E. coli [2] (Portugal, n 86). The “Antimicrobial resistance of E. coli (resistance in percent)” value with E. coli [2] (Spain, n 191) is 4.7%; with E. coli [2] (Sweden, n 193) it was 0%; with E. coli [2] (Switzerland, n 122), 3.3%; in the data set with E. coli [2] (The Netherlands, n 195), 0.5%; in the data set with E. coli [2] (Total, n 2478), 1.0%; with E. coli [2] (United Kingdom, n 180) it was 0%.

Turning to `O=C(O)c1cn(C2CC2)c2cc(N3CCNCC3)c(F)cc2c1=O` [CIP, 1-cyclopropyl-6-fluoro-4-oxo-7-piperazin-1-yl-quinoline-3-carboxylic acid], the “Antimicrobial resistance of E. coli (resistance in percent)” value is recorded as 0% in the data set with E. coli [2] (Austria, n 126); 2.9% in the data set with E. coli [2] (Belgium, n 137); 0% in the data set with E. coli [2] (Canada, n 166); 0% in the data set with E. coli [2] (Denmark, n 85); 0.5% with E. coli [2] (Finland, n 182); 2.0% in the data set with E. coli [2] (France, n 199). The “Antimicrobial resistance of E. coli (resistance in percent)” value is reported as 2.2% in the data set on E. coli [2] (Germany, n 138); 1.5% with E. coli [2] (Greece, n 132); 0% in the data set with E. coli [2] (Ireland, n 154); 4.2% in the data set on E. coli [2] (Luxembourg, n 24); 0% in the data set on E. coli [2] (Norway, n 168); 5.8% in the data set on E. coli [2] (Portugal, n 86). Also, the “Antimicrobial resistance of E. coli (resistance in percent)” value is recorded as 14.7% in the data set on E. coli [2] (Spain, n 191); 0% with E. coli [2] (Sweden, n 193); 2.5% with E. coli [2] (Switzerland, n 122); 2.1% in the data set with E. coli [2] (The Netherlands, n 195); 2.3% in the data set on E. coli [2] (Total, n 2478); 0.6% in the data set with E. coli [2] (United Kingdom, n 180). The “Overall resistance in E. coli” value in the data set on E. coli [1] is reported as 5.5%.

On to `CCn1cc(C(=O)O)c(=O)c2ccc(C)nc21` [NAL, 1-ethyl-7-methyl-4-oxo-[1,8]naphthyridine-3-carboxylic acid], for which the “Antimicrobial resistance of E. coli (resistance in percent)” value is 2.4% with E. coli [2] (Austria, n 126); 6.6% in the data set with E. coli [2] (Belgium, n 137); 0.6% with E. coli [2] (Canada, n 166); 3.5% in the data set with E. coli [2] (Denmark, n 85); 1.6% with E. coli [2] (Finland, n 182); 3.5% in the data set on E. coli [2] (France, n 199). In addition, the “Antimicrobial resistance of E. coli (resistance in percent)” value in the data set on E. coli [2] (Germany, n 138) is reported as 3.6%; in the data set on E. coli [2] (Greece, n 132), 6.8%; in the data set on E. coli [2] (Ireland, n 154), 1.9%; with E. coli [2] (Luxembourg, n 24) it was 8.3%; with E. coli [2] (Norway, n 168), 1.2%; in the data set on E. coli [2] (Portugal, n 86), 11.6%. Moreover, the “Antimicrobial resistance of E. coli (resistance in percent)” value with E. coli [2] (Spain, n 191) was 26.7%; in the data set with E. coli [2] (Sweden, n 193), 2.6%; in the data set on E. coli [2] (Switzerland, n 122) it was 6.6%; in the data set on E. coli [2] (The Netherlands, n 195) it was 5.1%; in the data set on E. coli [2] (Total, n 2478), 5.4%; in the data set on E. coli [2] (United Kingdom, n 180) it was 2.2%.

Regarding `C[C@@H]1O[C@@H]1P(=O)(O)O` [FOF, [(2R,3S)-3-methyloxiran-2-yl]phosphonic acid], the “Antimicrobial resistance of E. coli (resistance in percent)” value with E. coli [2] (Austria, n 126) is given as 0%; in the data set with E. coli [2] (Belgium, n 137), 0.7%; in the data set on E. coli [2] (Canada, n 166), 0.6%; in the data set with E. coli [2] (Denmark, n 85) it was 1.2%; in the data set on E. coli [2] (Finland, n 182), 1.1%; in the data set with E. coli [2] (France, n 199), 1.0%. Further, the “Antimicrobial resistance of E. coli (resistance in percent)” value was 0% in the data set with E. coli [2] (Germany, n 138); 1.5% with E. coli [2] (Greece, n 132); 1.3% in the data set with E. coli [2] (Ireland, n 154); 0% in the data set on E. coli [2] (Luxembourg, n 24); 1.2% in the data set with E. coli [2] (Norway, n 168); 0% with E. coli [2] (Portugal, n 86). The “Antimicrobial resistance of E. coli (resistance in percent)” value with E. coli [2] (Spain, n 191) was 0.5%; in the data set on E. coli [2] (Sweden, n 193), 0.5%; with E. coli [2] (Switzerland, n 122) it was 0.8%; in the data set on E. coli [2] (The Netherlands, n 195), 0.5%; in the data set with E. coli [2] (Total, n 2478) it was 0.7%; in the data set on E. coli [2] (United Kingdom, n 180), 0%.

Consider `CC1=C(C(=O)O)N2C(=O)C(NC(=O)C(N)c3ccc(O)cc3)C2SC1` (centres unmarked) [CFR, 8-[2-amino-2-(4-hydroxyphenyl)-acetyl]amino-4-methyl-7-oxo-2-thia-6-azabicyclo [4.2.0] oct-4-ene-5-carboxylic acid], for which the “Antimicrobial resistance of E. coli (resistance in percent)” value is reported as 0.8% in the data set with E. coli [2] (Austria, n 126); 0.7% in the data set with E. coli [2] (Belgium, n 137); 1.8% in the data set on E. coli [2] (Canada, n 166); 1.2% with E. coli [2] (Denmark, n 85); 1.6% in the data set on E. coli [2] (Finland, n 182); 1.0% in the data set on E. coli [2] (France, n 199). Besides, the “Antimicrobial resistance of E. coli (resistance in percent)” value in the data set with E. coli [2] (Germany, n 138) is on record as 1.4%; in the data set with E. coli [2] (Greece, n 132), 3.0%; in the data set with E. coli [2] (Ireland, n 154) it was 0.6%; in the data set on E. coli [2] (Luxembourg, n 24), 0%; in the data set with E. coli [2] (Norway, n 168), 2.4%; in the data set with E. coli [2] (Portugal, n 86) it was 2.3%. The “Antimicrobial resistance of E. coli (resistance in percent)” value with E. coli [2] (Spain, n 191) is 3.1%; with E. coli [2] (Sweden, n 193) it was 5.2%; in the data set with E. coli [2] (Switzerland, n 122) it was 0.8%; in the data set on E. coli [2] (The Netherlands, n 195), 4.6%; with E. coli [2] (Total, n 2478), 2.1%; with E. coli [2] (United Kingdom, n 180), 1.7%.

As for co-amoxiclav [AMC], the “Antimicrobial resistance of E. coli (resistance in percent)” value in the data set with E. coli [2] (Austria, n 126) is reported as 2.4%; with E. coli [2] (Belgium, n 137), 2.9%; in the data set with E. coli [2] (Canada, n 166), 3.6%; in the data set on E. coli [2] (Denmark, n 85), 1.2%; in the data set on E. coli [2] (Finland, n 182) it was 4.9%; with E. coli [2] (France, n 199), 1.5%. The “Antimicrobial resistance of E. coli (resistance in percent)” value with E. coli [2] (Germany, n 138) is reported as 2.2%; in the data set with E. coli [2] (Greece, n 132), 0.8%; in the data set on E. coli [2] (Ireland, n 154) it was 5.8%; in the data set on E. coli [2] (Luxembourg, n 24), 0%; with E. coli [2] (Norway, n 168), 3.6%; in the data set on E. coli [2] (Portugal, n 86) it was 9.3%. Further, the “Antimicrobial resistance of E. coli (resistance in percent)” value is 4.2% in the data set with E. coli [2] (Spain, n 191); 5.7% with E. coli [2] (Sweden, n 193); 2.5% in the data set on E. coli [2] (Switzerland, n 122); 2.6% in the data set with E. coli [2] (The Netherlands, n 195); 3.4% with E. coli [2] (Total, n 2478); 2.8% with E. coli [2] (United Kingdom, n 180).

With `Cc1cc(NS(=O)(=O)c2ccc(N)cc2)no1` [SUL, 4-amino-N-(5-methylisoxazol-3-yl)-benzenesulfonamide], the “Antimicrobial resistance of E. coli (resistance in percent)” value in the data set on E. coli [2] (Austria, n 126) was 25.4%; in the data set with E. coli [2] (Belgium, n 137), 32.8%; with E. coli [2] (Canada, n 166) it was 25.3%; with E. coli [2] (Denmark, n 85) it was 21.2%; in the data set on E. coli [2] (Finland, n 182) it was 15.4%; with E. coli [2] (France, n 199) it was 31.7%. For the same compound, the “Antimicrobial resistance of E. coli (resistance in percent)” value is recorded as 34.8% in the data set on E. coli [2] (Germany, n 138); 19.7% with E. coli [2] (Greece, n 132); 40.3% in the data set with E. coli [2] (Ireland, n 154); 25.0% in the data set with E. coli [2] (Luxembourg, n 24); 25.0% in the data set with E. coli [2] (Norway, n 168); 44.2% in the data set with E. coli [2] (Portugal, n 86). In addition, the “Antimicrobial resistance of E. coli (resistance in percent)” value in the data set on E. coli [2] (Spain, n 191) is listed as 48.7%; in the data set with E. coli [2] (Sweden, n 193), 16.6%; in the data set with E. coli [2] (Switzerland, n 122), 31.1%; with E. coli [2] (The Netherlands, n 195), 25.6%; in the data set on E. coli [2] (Total, n 2478), 29.1%; in the data set on E. coli [2] (United Kingdom, n 180) it was 31.7%.
